Results reported in ChEMBL document CHEMBL5053516, “Cinchona Alkaloid-Inspired Urea-Containing Autophagy Inhibitor Shows Single-Agent Anticancer Efficacy” (J Med Chem, 2021).
The source made the active and inactive calls. No cut-off for these calls is given here.

What was measured:
Mahlavu [1] = test: Cytotoxicity against human Mahlavu cells assessed as cell viability by MTT assay; assay type: functional, cell-based
[2] = Cytotoxicity against mouse HCA1 cells assessed as cell viability by MTT assay; assay type: functional, cell-based
Hep 3B2 [3] = test: Cytotoxicity against human Hep3B cells assessed as cell viability by MTT assay; assay type: functional, cell-based
[4] = Cytotoxicity against human JHH7 cells assessed as cell viability by MTT assay; assay type: functional, cell-based
HepG2 = test: Cytotoxicity against human HepG2 cells assessed as cell viability by MTT assay; assay type: functional, cell-based
[5] = Cytotoxicity against mouse FL83B cells assessed as cell viability by MTT assay; assay type: cell-based
HCA1 [6] = test: Induction of apoptosis in mouse HCA1 cells after 16 hrs using annexin V/PI staining assay; assay type: functional, cell-based
Mahlavu [7] = test: Induction of apoptosis in human Mahlavu cells after 16 hrs using annexin V/PI staining assay; assay type: functional, cell-based
HCA1 [8] = test: Downregulation of Akt expression in mouse HCA1 cells by Western blot analysis; assay type: functional, cell-based
Mahlavu [9] = test: Downregulation of Akt expression in human Mahlavu cells by Western blot analysis; assay type: functional, cell-based
[10] = molecular target: Serine/threonine-protein kinase AKT (Homo sapiens) (UniProt P31751+Q9Y243+P31749); test: Inhibition of Akt phosphorylation in human Hep3B cells by Western blot analysis; assay type: cell-based
Serine/threonine-protein kinase AKT (Homo sapiens), sequence (P31749 whole entry, looked up): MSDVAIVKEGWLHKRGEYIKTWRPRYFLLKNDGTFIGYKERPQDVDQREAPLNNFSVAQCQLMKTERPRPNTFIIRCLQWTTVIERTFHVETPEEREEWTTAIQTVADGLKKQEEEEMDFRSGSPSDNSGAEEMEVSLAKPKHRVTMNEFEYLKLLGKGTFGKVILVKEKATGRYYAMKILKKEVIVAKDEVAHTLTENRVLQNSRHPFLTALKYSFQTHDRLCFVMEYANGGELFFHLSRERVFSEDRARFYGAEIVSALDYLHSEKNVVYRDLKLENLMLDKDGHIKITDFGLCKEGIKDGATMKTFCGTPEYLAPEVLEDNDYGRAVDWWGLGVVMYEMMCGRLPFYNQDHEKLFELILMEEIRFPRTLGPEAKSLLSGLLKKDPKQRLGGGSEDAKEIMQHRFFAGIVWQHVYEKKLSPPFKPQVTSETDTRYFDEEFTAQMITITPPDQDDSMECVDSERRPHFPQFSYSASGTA
Serine/threonine-protein kinase AKT (Homo sapiens), sequence (P31751 whole entry, looked up): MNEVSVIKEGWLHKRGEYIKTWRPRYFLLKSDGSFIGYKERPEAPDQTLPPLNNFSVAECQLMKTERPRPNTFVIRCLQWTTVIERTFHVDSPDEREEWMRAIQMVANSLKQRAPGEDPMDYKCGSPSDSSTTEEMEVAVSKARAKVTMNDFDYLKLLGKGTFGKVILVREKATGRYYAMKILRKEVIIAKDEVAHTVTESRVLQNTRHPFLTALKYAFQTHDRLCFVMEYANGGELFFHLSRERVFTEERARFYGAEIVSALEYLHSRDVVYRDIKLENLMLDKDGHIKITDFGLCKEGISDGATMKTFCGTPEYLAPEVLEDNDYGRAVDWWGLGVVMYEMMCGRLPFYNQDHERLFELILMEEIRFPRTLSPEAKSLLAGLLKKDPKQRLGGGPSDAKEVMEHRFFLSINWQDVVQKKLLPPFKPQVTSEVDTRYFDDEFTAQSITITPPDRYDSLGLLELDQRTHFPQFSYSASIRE
Serine/threonine-protein kinase AKT (Homo sapiens), sequence (Q9Y243 whole entry, looked up): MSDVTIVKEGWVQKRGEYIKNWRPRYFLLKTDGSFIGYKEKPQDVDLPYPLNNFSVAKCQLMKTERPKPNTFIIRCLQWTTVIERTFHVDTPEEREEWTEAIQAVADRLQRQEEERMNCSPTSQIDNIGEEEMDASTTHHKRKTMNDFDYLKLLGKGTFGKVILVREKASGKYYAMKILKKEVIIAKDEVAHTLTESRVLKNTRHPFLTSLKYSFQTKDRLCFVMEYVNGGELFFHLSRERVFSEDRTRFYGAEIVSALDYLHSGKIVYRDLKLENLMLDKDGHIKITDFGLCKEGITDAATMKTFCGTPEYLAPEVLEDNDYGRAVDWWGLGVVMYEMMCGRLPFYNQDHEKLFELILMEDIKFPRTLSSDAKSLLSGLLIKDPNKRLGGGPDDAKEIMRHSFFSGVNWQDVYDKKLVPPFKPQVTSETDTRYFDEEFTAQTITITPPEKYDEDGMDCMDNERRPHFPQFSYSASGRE

HCA1 [11] = test: Reduction in Bcl-xL expression in mouse HCA1 cells by Western blot analysis; assay type: functional, cell-based
Mahlavu [12] = test: Reduction in Bcl-xL expression in human Mahlavu cells by Western blot analysis; assay type: functional, cell-based
Mahlavu [13] = test: Reduction in p53 expression in human Mahlavu cells by Western blot analysis; assay type: functional, cell-based
HCA1 [14] = test: Induction of apoptosis in mouse HCA1 cells assessed as increase in cleaved caspase 3 measured after 2 hrs by Western blot analysis; assay type: functional, cell-based
Mahlavu [15] = test: Induction of apoptosis in human Mahlavu cells assessed as increase in cleaved caspase 3 measured after 2 hrs by Western blot analysis; assay type: functional, cell-based
HCA1 [16] = test: Inhibition of autophagy in mouse HCA1 cells assessed as increase in LC3-II measured after 2 to 6 hrs by Western blot analysis; assay type: functional, cell-based; conditions: time 2-6 hrs
Mahlavu [17] = test: Inhibition of autophagy in human Mahlavu cells assessed as increase in LC3-II measured after 2 to 6 hrs by Western blot analysis; assay type: functional, cell-based; conditions: time 2-6 hrs
Hep 3B2 [18] = test: Inhibition of autophagy in human Hep3B cells assessed as increase in LC3-II measured after 2 to 6 hrs by Western blot analysis; assay type: functional, cell-based; conditions: time 2-6 hrs
HCA1 [19] = test: Inhibition of autophagy in mouse HCA1 cells assessed as increase in p62 expression measured after 2 to 6 hrs by Western blot analysis; assay type: functional, cell-based; conditions: time 2-6 hrs
Mahlavu [20] = test: Inhibition of autophagy in human Mahlavu cells assessed as increase in p62 expression measured after 2 to 6 hrs by Western blot analysis; assay type: functional, cell-based; conditions: time 2-6 hrs
Hep 3B2 [21] = test: Inhibition of autophagy in human Hep3B cells assessed as increase in p62 expression measured after 2 to 6 hrs by Western blot analysis; assay type: functional, cell-based; conditions: time 2-6 hrs
HCA1 [22] = test: Effect on LC3-I expression in mouse HCA1 cells at 0.5 uM by Western blot analysis; assay type: functional, cell-based
Mahlavu [23] = test: Effect on LC3-I expression in human Mahlavu cells at 0.5 uM by Western blot analysis; assay type: functional, cell-based
Hep 3B2 [24] = test: Effect on LC3-I expression in human Hep3B cells at 0.5 uM by Western blot analysis; assay type: functional, cell-based
HCA1 [25] = test: Inhibition of autophagosome-lysosome fusion in mouse HCA1 cells assessed as number of LC3 puncta at 1 uM for 2 hrs by immunofluorescence assay; assay type: functional, cell-based
Mahlavu [26] = test: Inhibition of autophagosome-lysosome fusion in human Mahlavu cells assessed as number of LC3 puncta at 1 uM for 2 hrs by immunofluorescence assay; assay type: functional, cell-based
HCA1 [27] = test: Inhibition of autophagy in mouse HCA1 cells assessed as increase in LC3-II measured at 0.1 to 0.5 uM by Western blot analysis; assay type: functional, cell-based; conditions: dose 0.1-0.5 µM, time 2-6 hrs, TDE = time-dependent effect
Mahlavu [28] = test: Inhibition of autophagy in human Mahlavu cells assessed as increase in LC3-II measured at 0.1 to 0.5 uM by Western blot analysis; assay type: functional, cell-based; conditions: dose 0.1-0.5 µM, time 2-6 hrs, TDE = time-dependent effect
Hep 3B2 [29] = test: Inhibition of autophagy in human Hep3B cells assessed as increase in LC3-II measured at 0.1 to 0.5 uM by Western blot analysis; assay type: functional, cell-based; conditions: dose 0.1-0.5 µM, time 2-6 hrs, TDE = time-dependent effect
HCA1 [30] = test: Inhibition of autophagy in mouse HCA1 cells assessed as increase in p62 expression measured at 0.1 to 0.5 uM by Western blot analysis; assay type: functional, cell-based; conditions: dose 0.1-0.5 µM, time 2-6 hrs, TDE = time-dependent effect
Mahlavu [31] = test: Inhibition of autophagy in human Mahlavu cells assessed as increase in p62 expression measured at 0.1 to 0.5 uM by Western blot analysis; assay type: functional, cell-based; conditions: dose 0.1-0.5 µM, time 2-6 hrs, TDE = time-dependent effect
Hep 3B2 [32] = test: Inhibition of autophagy in human Hep3B cells assessed as increase in p62 expression measured at 0.1 to 0.5 uM by Western blot analysis; assay type: functional, cell-based; conditions: dose 0.1-0.5 µM, time 2-6 hrs, TDE = time-dependent effect

Compound: C=CC1CN2CCC1C[C@H]2[C@@H](NC(=O)Nc1ccccc1C(F)(F)F)c1ccnc2ccc(OC)cc12 (some centres undefined)
- IC50 (Mahlavu [1]): 6.51 µM
- IC50 [2]: 5.72 µM
- IC50 (Hep 3B2 [3]): 3.05 µM
- IC50 [4]: > 10 µM
- IC50 (HepG2): > 10 µM
- IC50 [5]: > 10 µM

Compound: C=CC1CN2CCC1C[C@H]2[C@@H](NC(=O)Nc1ccc(OC)cc1)c1ccnc2ccc(OC)cc12 (some centres undefined)
- IC50 (Mahlavu [1]): 6.29 µM
- IC50 [2]: 5.85 µM
- IC50 (Hep 3B2 [3]): 9.92 µM
- IC50 [4]: > 10 µM
- IC50 (HepG2): 9.55 µM
- IC50 [5]: > 10 µM

Compound: C=CC1CN2CCC1CC2[C@@H](NC(=O)Nc1ccc(C(F)(F)F)cc1)c1ccnc2ccc(OC)cc12 (some centres undefined)
- IC50 (Mahlavu [1]): 0.6 µM
- IC50 [2]: 0.62 µM
- IC50 (Hep 3B2 [3]): 0.59 µM
- IC50 [4]: 0.42 µM
- IC50 (HepG2): 1.08 µM
- IC50 [5]: 0.79 µM

Compound: C=CC1CN2CCC1C[C@H]2[C@@H](NC(=O)Nc1cc(OC)cc(OC)c1)c1ccnc2ccc(OC)cc12 (some centres undefined)
- IC50 (Mahlavu [1]): 3.81 µM
- IC50 [2]: 2.26 µM
- IC50 (Hep 3B2 [3]): 3.53 µM
- IC50 [4]: 5.87 µM
- IC50 (HepG2): 5.09 µM
- IC50 [5]: 8.46 µM

Compound: C=CC1CN2CCC1CC2[C@@H](NC(=O)Nc1cc(C(F)(F)F)cc(C(F)(F)F)c1)c1ccnc2ccc(OC)cc12 (some centres undefined)
- IC50 (Mahlavu [1]): 0.13 µM
- IC50 [2]: 0.23 µM
- IC50 (Hep 3B2 [3]): 0.27 µM
- IC50 [4]: 0.27 µM
- IC50 (HepG2): 0.69 µM
- IC50 [5]: 0.72 µM
- Activity (HCA1 [6]): Dose-dependent effect
- Activity (Mahlavu [7]): Dose-dependent effect
- Activity (HCA1 [8]): Active
- Activity (Mahlavu [9]): Active
- inhibition [10]: Active
- Activity (HCA1 [11]): Active
- Activity (Mahlavu [12]): Active
- Activity (Mahlavu [13]): Active
- Activity (HCA1 [14]): Active
- Activity (Mahlavu [15]): Active
- Activity (HCA1 [16]): Dose-dependent effect
- Activity (Mahlavu [17]): Dose-dependent effect
- Activity (Hep 3B2 [18]): Dose-dependent effect
- Activity (HCA1 [19]): Dose-dependent effect
- Activity (Mahlavu [20]): Dose-dependent effect
- Activity (Hep 3B2 [21]): Dose-dependent effect
- Activity (HCA1 [22]): Active
- Activity (Mahlavu [23]): inactive
- Activity (Hep 3B2 [24]): inactive
- Activity (HCA1 [25]): Active
- Activity (Mahlavu [26]): Active
- Activity (HCA1 [27]): Tde
- Activity (Mahlavu [28]): Tde
- Activity (Hep 3B2 [29]): Tde
- Activity (HCA1 [30]): Tde
- Activity (Mahlavu [31]): Tde
- Activity (Hep 3B2 [32]): Tde

Compound: CCN(CC)CCCC(C)Nc1ccnc2cc(Cl)ccc12 (centres undefined) [CHLOROQUINE]
- IC50 (Mahlavu [1]): > 10 µM
- IC50 [2]: > 10 µM
- IC50 (Hep 3B2 [3]): > 10 µM
- IC50 [4]: > 10 µM
- IC50 (HepG2): > 10 µM
- IC50 [5]: > 10 µM

Compound: C=CC1CN2CCC1CC2[C@@H](NC(=O)Nc1ccc(F)cc1)c1ccnc2ccc(OC)cc12 (some centres undefined)
- IC50 (Mahlavu [1]): 3.65 µM
- IC50 [2]: 2.81 µM
- IC50 (Hep 3B2 [3]): 2 µM
- IC50 [4]: > 10 µM
- IC50 (HepG2): 5.88 µM
- IC50 [5]: 3.9 µM

Compound: C=CC1CN2CCC1C[C@H]2[C@@H](NC(=O)Nc1cc(C)cc(C)c1)c1ccnc2ccc(OC)cc12 (some centres undefined)
- IC50 (Mahlavu [1]): > 10 µM
- IC50 [2]: > 10 µM
- IC50 (Hep 3B2 [3]): 5.12 µM
- IC50 [4]: 7.31 µM
- IC50 (HepG2): 5.16 µM
- IC50 [5]: > 10 µM

Compound: C=CC1CN2CCC1CC2[C@@H](NC(=O)Nc1ccccc1)c1ccnc2ccc(OC)cc12 (some centres undefined)
- IC50 (Mahlavu [1]): 4.02 µM
- IC50 [2]: > 10 µM
- IC50 (Hep 3B2 [3]): > 10 µM
- IC50 [4]: > 10 µM
- IC50 (HepG2): 8.67 µM
- IC50 [5]: > 10 µM

Compound: C=CC1CN2CCC1C[C@H]2[C@@H](NC(=O)Nc1cccc(C(F)(F)F)c1)c1ccnc2ccc(OC)cc12 (some centres undefined)
- IC50 (Mahlavu [1]): 6.1 µM
- IC50 [2]: 1.48 µM
- IC50 (Hep 3B2 [3]): 1.62 µM
- IC50 [4]: 6.42 µM
- IC50 (HepG2): > 10 µM
- IC50 [5]: > 10 µM

Compound: C=CC1CN2CCC1CC2[C@H](NC(=O)Nc1cc(C(F)(F)F)cc(C(F)(F)F)c1)c1ccnc2ccc(OC)cc12 (some centres undefined)
- IC50 (Mahlavu [1]): 0.62 µM
- IC50 [2]: 0.42 µM
- IC50 (Hep 3B2 [3]): 0.38 µM
- IC50 [4]: 0.6 µM
- IC50 (HepG2): 0.69 µM
- IC50 [5]: 0.92 µM

Compound: C=CC1CN2CCC1CC2[C@@H](NC(=S)Nc1cc(C(F)(F)F)cc(C(F)(F)F)c1)c1ccnc2ccc(OC)cc12 (some centres undefined)
- IC50 (Mahlavu [1]): 0.28 µM
- IC50 [2]: 0.37 µM
- IC50 (Hep 3B2 [3]): 0.29 µM
- IC50 [4]: 0.34 µM
- IC50 (HepG2): 0.77 µM
- IC50 [5]: 0.78 µM
